The source of these data is US9371319B2, “Pyrrolopyridineamino derivatives as MPS1 inhibitors” (priority 2011, dated 2016).

This assay addresses T1, full length MPS1 (Homo sapiens, UniProt P33981).
T1 sequence (P33981 1-857): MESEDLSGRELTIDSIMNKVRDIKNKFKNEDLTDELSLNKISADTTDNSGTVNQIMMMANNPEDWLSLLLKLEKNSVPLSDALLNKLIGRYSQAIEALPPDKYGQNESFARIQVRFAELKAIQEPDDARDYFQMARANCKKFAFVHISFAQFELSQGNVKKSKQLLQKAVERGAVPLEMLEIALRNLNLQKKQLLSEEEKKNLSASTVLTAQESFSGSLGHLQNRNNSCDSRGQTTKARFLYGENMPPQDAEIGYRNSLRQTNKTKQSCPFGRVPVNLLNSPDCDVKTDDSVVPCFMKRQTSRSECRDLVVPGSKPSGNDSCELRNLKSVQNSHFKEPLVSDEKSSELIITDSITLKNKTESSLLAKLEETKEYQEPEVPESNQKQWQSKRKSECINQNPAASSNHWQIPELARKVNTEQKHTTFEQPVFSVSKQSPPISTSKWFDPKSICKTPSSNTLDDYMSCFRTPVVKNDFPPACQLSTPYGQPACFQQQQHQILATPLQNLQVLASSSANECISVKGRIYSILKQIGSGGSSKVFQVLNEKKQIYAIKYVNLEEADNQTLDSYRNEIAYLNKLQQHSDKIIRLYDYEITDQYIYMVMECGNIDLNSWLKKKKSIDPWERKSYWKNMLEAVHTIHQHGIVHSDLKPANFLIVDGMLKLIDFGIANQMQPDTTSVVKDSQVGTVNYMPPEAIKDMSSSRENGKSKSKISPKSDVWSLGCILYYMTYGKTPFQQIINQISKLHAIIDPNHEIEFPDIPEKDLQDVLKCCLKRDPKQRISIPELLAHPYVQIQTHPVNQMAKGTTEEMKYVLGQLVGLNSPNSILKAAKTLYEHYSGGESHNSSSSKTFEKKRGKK
The assay can be described thus: biochemical.
In the case of `CN(C)C(=O)c1ccc(Nc2cc3c(cn2)c(Cl)c(-c2cnn(C)c2)n3CC2CC2)c(Cl)c1` [Example 192, 3-Chloro-4-(3-chloro-1-(cyclopropylmethyl)-2-(1-methyl-1H-pyrazol-4-yl)-1H-pyrrolo[3,2-c]pyridin-6-ylamino)-N,N-dimethylbenzamide], the IC50 (in general, the point on the concentration scale where inhibition reaches its midpoint) stood at 53 nM. Take `Cn1cc(-c2[nH]c3cc(Nc4ccccc4Cl)ncc3c2Cl)cn1` [Example 193, 3-Chloro-N-(2-chlorophenyl)-2-(1-methyl-1H-pyrazol-4-yl)-1H-pyrrolo[3,2-c]pyridin-6-amine]: the IC50 was determined as 421 nM. As for `Cn1cc(-c2ccc(Nc3cc4[nH]c(-c5cnn(C)c5)c(Cl)c4cn3)c(Cl)c2)cn1` [Example 194, 3-Chloro-N-(2-chloro-4-(1-methyl-1H-pyrazol-4-yl)phenyl)-2-(1-methyl-1H-pyrazol-4-yl)-1H-pyrrolo[3,2-c]pyridin-6-amine], the figure is 128 nM. The compound `COC1CN(C(=O)c2ccc(Nc3cc4[nH]c(-c5cnn(C)c5)c(Cl)c4cn3)c(Cl)c2)C1` [Example 195, (3-chloro-4-(3-chloro-2-(1-methyl-1H-pyrazol-4-yl)-1H-pyrrolo[3,2-c]pyridin-6-ylamino)phenyl)(3-methoxyazetidin-1-yl)methanone] returned an IC50 of 21 nM.

Compound `Cn1cc(-c2[nH]c3cc(Nc4ccc(C(=O)N5CCS(=O)(=O)CC5)cc4Cl)ncc3c2Cl)cn1` [Example 196, (3-Chloro-4-(3-chloro-2-(1-methyl-1H-pyrazol-4-yl)-1H-pyrrolo[3,2-c]pyridin-6-ylamino)phenyl)(S,S-dioxo-thiomorpholino)methanone] came in with an IC50 of 9 nM.

`Cn1cc(-c2[nH]c3cc(Nc4ccc(S(C)(=O)=O)cc4Cl)ncc3c2Cl)cn1` [Example 197, 3-Chloro-N-(2-chloro-4-(methylsulfonyl)phenyl)-2-(1-methyl-1H-pyrazol-4-yl)-1H-pyrrolo[3,2-c]pyridin-6-amine] gave an IC50 of 69 nM.
